This passage reports EC50 results from patent US11161819B2, “Substituted tetrahydroisoquinoline compounds useful as GPR120 agonists” (Merck Sharp & Dohme Corp., priority 2016, dated 2021).

The target of this experiment is T1, human GPR120 (Homo sapiens, UniProt Q5NUL3).
T1 construct: expressed in transfected cells
T1 sequence (Q5NUL3 1-361): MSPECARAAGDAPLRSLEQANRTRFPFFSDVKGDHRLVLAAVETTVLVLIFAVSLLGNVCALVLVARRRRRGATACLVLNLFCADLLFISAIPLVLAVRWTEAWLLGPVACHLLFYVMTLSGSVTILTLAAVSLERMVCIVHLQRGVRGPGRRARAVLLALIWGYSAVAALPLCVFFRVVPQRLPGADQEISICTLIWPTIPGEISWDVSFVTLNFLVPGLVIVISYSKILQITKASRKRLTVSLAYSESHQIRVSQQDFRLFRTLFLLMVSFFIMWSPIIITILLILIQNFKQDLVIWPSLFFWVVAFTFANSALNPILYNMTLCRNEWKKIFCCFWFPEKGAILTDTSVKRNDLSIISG
Briefly: Human GPR120 IP1 Assay (inositol phosphate turnover, CisBio IP-One kit). Format: cell-based. The following applies: IP1 accumulation in CHO-K1 cells stably expressing the short form of human GPR120; 60 min compound incubation; 4-parameter fit; read-out: hGPR120 EC50. The source says:
Human GPR120 IP1 Assay Principle
The binding of small molecule agonists to the G-protein-coupled receptor GPR120 activates phospholipase C, and leads to the generation of inositol 1,4,5-trisphosphate (InsP3 or IP3). IP3 is subsequently de-phosphorylated to IP1, which accumulates in cells and is stable in the presence of lithium chloride.
In the present method, agonist-induced activation of the human GPR120 receptor was monitored by measuring the accumulation of IP1 in CHO-K1 cells that were stably expressing the short form of human GPR120 (Accession #NM_001195755). Following agonist addition, GPR120 activation and subsequent accumulation of IP1 was measured using a homogeneous Time Resolved Fluorescence-based ELISA commercially available from CisBio (IP-one ELISA Kit). The IP-One ELISA was a competitive immunoassay which uses IP1 labeled with […] and a terbium cryptate-labeled anti-IP1 monoclonal antibody. […] The signal loss was then back calculated to IP1 concentration using an IP1 standard curve. Determination of IP1 concentration was a direct measure of GPR120 activation and was used to determine compound potency (EC50).
Generation of GPR120-Expressing Cells:
Human GPR120 stable cell-lines were generated in CHO cells. The expression plasmids were transfected using lipofectamine (Life Technologies) following manufacturer's instructions. Stable cell-lines were generated following drug selection and single cell cloning.
Inositol Phosphate Turnover (IP1) Assay:
The assay was performed in 384-well format. CHO cells stably expressing human GPR120 were plated at […] per well in growth medium (DMEM/F12, 10% fetal calf serum). Cell plates were then incubated 16 hours at 37 degrees in a 5% CO2 incubator. Measurement of Inositol Phosphate Turnover (IP1) was performed using the CisBio IP-One kit (Part number 62IPAPEB). After the 16 hour incubation, the growth media was removed by centrifugation using the BlueWasher (AusWasher GUI Ver. v1.0.1.8) Protocol #21-“Light Dry” and 10 ul of stimulation buffer (prepared as described in the kit) was added to each well. In a separate plate, compounds were diluted in DMSO (200-fold over the final concentration in the assay well) and 50 nl was acoustically transferred to the appropriate well in the assay cell plate. The plates were then incubated for 60 minutes at 37 degrees in a 5% CO2 incubator. 10 ul of detection buffer (also prepared as described in the IP-One kit) was added to each well and the plates were incubated at room temperature for 60 minutes in the dark. The plates were then read in a Perkin Elmer EnVision or equivalent reader able to measure FRET. Fluorescent ratio of emission at 665 and 620 nm was then converted to the IP1 concentration by back calculating from an IP1 standard curve prepared at the time of the assay. The data was normalized to % activity using a reference compound, and the EC50 values were determined using a standard 4-parameter fit.
As usually defined, the EC50 is the concentration needed to bring the measured effect to its halfway point. On to `O=C(O)CCc1ccc2c(c1)CCN(c1cc(OC3CCC3)cc(F)c1Cl)C2` [Example 45, 3-{2-[2-chloro-5-(cyclobutyloxy)-3-fluorophenyl]-1,2,3,4-tetrahydro-isoquinolin-6-yl}propanoic acid], for which the EC50 is 2290 nM.
`N#Cc1ccc(OC(F)(F)F)cc1N1CCc2c(ccc(CCC(=O)O)c2F)C1` [Example 78, 3-{2-[2-cyano-5-(trifluoromethoxy)phenyl]-5-fluoro-1,2,3,4-tetrahydro-isoquinolin-6-yl}propanoic acid]: the half-maximal effective concentration (EC50) came to 19 nM.
With `CC(Cc1ccc2c(c1)CCN(c1cc(OC(F)(F)F)ccc1F)C2)C(=O)O` (stereo not drawn) [Example 52], the EC50 came out at 510 nM.
In the case of `O=C(O)CCc1ccc2c(c1)CCN(c1cc(OC(F)(F)F)cc(Cl)c1Cl)C2` [Example 156, 3-{2-[2,3-dichloro-5-(trifluoro-methoxy)phenyl]-1,2,3,4-tetra-hydroisoquinolin-6-yl}propanoic acid] it was 62 nM; in that of `O=C(O)CCc1ccc2c(c1)CCN(c1cc(OC3CCC3)cc(C(F)F)c1F)C2` [Example 10, 3-{2-[5-(cyclobutyloxy)-3-(difluoromethyl)-2-fluorophenyl]-1,2-3,4-tetrahydroisoquinolin-6-yl}-propanoic acid], 14 nM; in that of `Cc1cnc(Oc2cc(Cl)c(F)c(N3CCc4c(ccc(CCC(=O)O)c4F)C3)c2)s1` [Example 62, 3-(2-{3-chloro-2-fluoro-5-[(5-methyl-1,3-thiazol-2-yl)oxy]phenyl}-5-fluoro-1,2,3,4-tetrahydroisoquinolin-6-yl)propanoic acid], 3 nM.
In the case of `N#Cc1c(F)cc(OC2CCC2)cc1N1CCc2c(ccc(CCC(=O)O)c2Cl)C1` [Example 153, 3-{5-chloro-2-[2-cyano-5-(cyclobutyloxy)-3-fluorophenyl]-1,2,3,4-tetrahydroisoquinolin-6-yl}-propanoic acid] it was 87 nM.
In the case of `O=C(O)CCc1ccc2c(c1F)CCN(c1cc(OC3CCC3)ccc1F)C2` [Example 81, 3-{2-[5-(cyclobutyloxy)-2-fluoro-phenyl]-5-fluoro-1,2,3,4-tetrahydro-isoquinolin-6-yl}propanoic acid] it was 48 nM; in that of `COc1cc(Oc2ncc(C)s2)cc(N2CCc3cc(CCC(=O)O)ccc3C2)c1F` [Example 17, 3-(2-{2-fluoro-3-methoxy-5-[(5-methyl-1,3-thiazol-2-yl)oxy]phenyl}-1,2,3,4-tetrahydroiso-quinolin-6-yl)propanoic acid], 23 nM.
In the case of `Cc1nn(-c2ccc(F)cc2)c(N2CCc3cc(C4CC4C(=O)O)ccc3C2)c1F` (stereo not drawn) [Example 92, 2-{2-[4-fluoro-1-(4-fluorophenyl)-3-methyl-1H-pyrazol-5-yl]-1,2,3,4-tetrahydroisoquinolin-6-yl} cyclo-propanecarboxylic acid], the EC50 came to 482 nM.
On to `O=C(O)CCc1ccc2c(c1F)CCN(c1cc(OC(F)(F)F)ccc1F)C2` [Example 80, 3-{5-fluoro-2-[2-fluoro-5-(trifluoromethoxy)phenyl]-1,2,3,4-tetrahydro-isoquinolin-6-yl}propanoic acid], for which the 50% effective concentration (EC50) was determined as 3120 nM.
In the case of `CC(CC(=O)O)c1ccc2c(c1)CCN(c1cc(OC(F)(F)F)ccc1F)C2` (stereo not drawn) [Example 7, 3-(2-(2-fluoro-5-(trifluoromethoxy)phenyl)-1,2,3,4-tetrahydroisoquinolin-6-yl)butanoic acid] it was 533 nM.
On to `CC(Cc1ccc2c(c1F)CCN(c1cc(OC(F)(F)F)ccc1F)C2)C(=O)O` (stereo not drawn) [Example 77, 3-{5-fluoro-2-[2-fluoro-5-(trifluoromethoxy)phenyl]-1,2,3,4-tetrahydro-isoquinolin-6-yl}-2-methyl-propanoic acid], for which the EC50 was determined as 5880 nM.
Turning to `CO[C@H]1C[C@H](Oc2cc(F)c(F)c(N3CCc4cc([C@H]5C[C@@H]5C(=O)O)ccc4C3)c2)C1` [Example 100, (1S,2S)-2-(2-{2,3-difluoro-5-[(trans-3-methoxycyclobutyl)oxy]phenyl}-1,2,3,4-tetrahydroiso-quinolin-6-yl)-cyclopropanecarboxylic acid], the EC50 came to 251 nM.
As to `CO[C@H]1C[C@H](Oc2cc(F)c(F)c(N3CCc4c(ccc([C@@H]5C[C@H]5C(=O)O)c4F)C3)c2)C1` [Example 110, (1R,2R)-2-(2-{2,3-difluoro-5-[(trans-3-methoxycyclobutyl)oxy]phenyl}-5-fluoro-1,2,3,4-tetrahydroisoquinolin-6-yl)-cyclopropanecarboxylic acid], the EC50 is 42 nM.
As for `O=C(O)[C@H]1C[C@@H]1c1ccc2c(c1F)CCN(c1cc(OC(F)(F)F)cc(Cl)c1F)C2` [Example 120, (1S,2S)-2-{2-[3-chloro-2-fluoro-5-(trifluoromethoxy)phenyl]-5-fluoro-1,2,3,4-tetrahydroisoquinolin-6-yl}cyclopropane-carboxylic acid], the EC50 is 299 nM.
In the case of `O=C(O)CCc1ccc2c(c1F)CCN(c1nc(OC3CCC3)ccc1F)C2` [Example 63, 3-{2-[6-(cyclobutyloxy)-3-fluoro-pyridin-2-yl]-5-fluoro-1,2,3,4-tetra-hydro-isoquinolin-6-yl} propanoic acid], the EC50 stood at 14 nM.
Consider `CO[C@H]1C[C@H](Oc2cc(F)c(F)c(N3CCc4cc(CCC(=O)O)ccc4C3)c2)C1` [Example 20, 3-(2-{2,3-difluoro-5-[(trans-3-methoxycyclobutyl)oxy]phenyl}-1,2,3,4-tetrahydroisoquinolin-6-yl)propanoic acid], for which the EC50 was found to be 29 nM.
In the case of `O=C(O)CCc1ccc2c(c1)CCN(c1cc(Cl)c(C(F)(F)F)c(Cl)c1)C2` [Example 40, 3-{2-[3,5-dichloro-4-(trifluoro-methyl)phenyl]-1,2,3,4-tetrahydro-isoquinolin-6-yl}propanoic acid] it was 463 nM; in that of `O=C(O)[C@@H]1C[C@H]1c1ccc2c(c1)CCN(c1cc(OC3CCC3)cc(Cl)c1F)C2` [Example 114, (1R,2R)-2-{2-[3-chloro-5-(cyclobutyloxy)-2-fluorophenyl]-1,2,3,4-tetrahydroisoquinolin-6-yl} cyclopropanecarboxylic acid], 61 nM.
In the case of `CC(Cc1ccc2c(c1F)CCN(c1cc(OC(F)(F)F)cc(Cl)c1F)C2)C(=O)O` (single isomer, unassigned) [Example 68, 3-{2-[3-chloro-2-fluoro-5-(trifluoromethoxy)phenyl]-5-fluoro-1,2,3,4-tetrahydroisoquinolin-6-yl}-2-methyl-propanoic acid] it was 58 nM; in that of `COc1cc(F)c(N2CCc3cc(CCC(=O)O)ccc3C2)cc1Oc1ncc(C)s1` [Example 21, 3-(2-{2-fluoro-4-methoxy-5-[(5-methyl-1,3-thiazol-2-yl)oxy]phenyl}-1,2,3,4-tetrahydroiso-quinolin-6-yl)propanoic acid], 51 nM.
In the case of `O=C(O)CCc1ccc2c(c1F)CCN(c1cc(OC3CCC3)cc(F)c1F)C2` [Example 64, 3-{2-[5-(cyclobutyloxy)-2,3-difluorophenyl]-5-fluoro-1,2,3,4-tetra-hydroisoquinolin-6-yl}propanoic acid] it was 15 nM; in that of `Cc1ccc(-n2nc(C)c(C#N)c2N2CCc3cc(C(C)CCCC(=O)O)ccc3C2)cc1` (single isomer, unassigned) [Example 140, 5-{2-[4-cyano-3-methyl-1-(4-methylphenyl)-1H-pyrazol-5-yl]-1,2,3,4-tetrahydroisoquinolin-6-yl} hexanoic acid], 209 nM.
